Results from patent publication US4731241A, “Percutaneous pharmaceuticals preparation for external use” (priority 1983, dated 1988).
Read-outs that look alike come from different tables or passages of the source. Blank lines part the entries; values can stand above or below the compound they belong to.

Experiments:
[1] = type: in vivo, male SD-JCL rats; details: rat
Procedure: Five male SD-JCL rats with a mean body weight of 250 g were anesthetized with pentobarbital and the abdominal hairs were clipped with an electric clipper (20 cm^2 5×4 cm). Each of coating samples A though D was then coated on the clipped area. At 1, 2, 4 and 6 hours after application (till 8 hours for evaluation of sustained effect), 0.5 ml of venous blood was collected from the tail vain of each rat and the plasma concentration of molsidomine was determined by the following procedure.
In a mixture of 20 mg of lauric acid, which is a percutaneous absorption promotor according to this invention, and 177 mg of propylene glycol was dissolved 3 mg of clonidine to prepare a coating sample. Using this sample, a percutaneous absorption test was conducted in the same manner as Example 1. The plasma concentration of clonidine was determined by the following procedure.
The venous blood was centrifuged and the plasma was separated. A 0.2 ml of the plasma was extracted with 1 ml of 0.01 N NaOH and 5 ml of chloroform, and from 4 ml of the chloroform layer, the chloroform was evaporated. The residue was dissolved in 0.2 ml of a mixture of 0.05 M sodium acetate, acetonitrile and tetrahydrofuran (70:30:0.2, v/v), and 50 μl of this solution was subjected to liquid chromatography to determine the clonidine concentration. A column of μ-Bondapak C18 was employed. The evaluation of percutaneous absorption was carried out in the same manner as described in Example 1. […] Similar tests were conducted using oleic acid, lauryl alcohol, oleinamide and laurylamine as well but all of them were ineffective for clonidine as […].

[2] = From the text: Then, the present inventors attempted at a systematic classification of compounds which could contribute to the percutaneous absorption of molsidomine and performed a series of experiments.
[3] = cited from earlier work

SMILES: Clc1cccc(Cl)c1N=C1NCCN1 [clonidine]
clonidine detection in the blood ([1]; 3 mg clonidine, 20 mg lauric acid, 177 mg propylene glycol, percutaneous): not detected

SMILES: OCC(O)CO [glycerin]
promotion of percutaneous absorption of molsidomine ([2]; added to molsidomine): none of them proved meaningfully effective

effectiveness as percutaneous absorption promoter for clonidine ([1]; percutaneous, clonidine): not effective
SMILES: CCCCCCCCCCCC(=O)O [lauric acid]

SMILES: CCCCCCCCCCCCO [lauryl alcohol]
effectiveness as percutaneous absorption promoter for clonidine ([1]; percutaneous, clonidine): ineffective

effectiveness as percutaneous absorption promoter for clonidine ([1]; percutaneous, clonidine): ineffective
SMILES: CCCCCCCCCCCCN [laurylamine]

SMILES: COC(=O)c1ccccc1O [methyl salicylate]
promotion of percutaneous absorption of molsidomine [2]: none of them proved meaningfully effective

SMILES: CCOC(=O)[N-]c1cn(N2CCOCC2)n[o+]1 [molsidomine, N-ethoxycarbonyl-3-morpholinosydnonimine]
side effects ([3]; background): few side effects | vasodilator activity ([3]; background): excellent vasodilator activity | percutaneous absorption of molsidomine administered alone ([3]; percutaneous route, alone): not well absorbed

effectiveness as percutaneous absorption promoter for clonidine ([1]; in vivo): ineffective
SMILES: CCCCCCCC/C=C\CCCCCCCC(=O)O [oleic acid]

SMILES: CCCCCCCC/C=C\CCCCCCCC(N)=O [oleinamide]
effectiveness as percutaneous absorption promoter for clonidine ([1]; percutaneous, clonidine): ineffective

SMILES: CC(O)CO (centres unmarked) [propylene glycol]
promotion of percutaneous absorption of molsidomine ([2]; added to molsidomine): none of them proved meaningfully effective

SMILES: O=C(O)c1ccccc1O [salicylic acid]
promotion of percutaneous absorption of molsidomine ([2]; added to molsidomine): none of them proved meaningfully effective

SMILES: OC[C@@H](O)[C@@H](O)[C@H](O)[C@@H](O)CO [sorbitol]
promotion of percutaneous absorption of molsidomine [2]: none of them proved meaningfully effective
